Assay results published in US10280145B2 (Toray Industries, Inc., priority 2015, dated 2019).

Target: T1, intracellular domain of DDR1 (Homo sapiens, UniProt Q08345)
T1 construct: the intracellular domain of DDR1 (in a final concentration of 5 ng/μL) (Carna Biosciences, Inc.); purchased Carna Biosciences, Inc
Assay: Evaluation of DDR1 inhibition activity with HTRF KinEASE-TK kit
Type: biochemical
Conditions: DDR1 intracellular domain 5 ng/μL, ATP 25 μm/L, TK Substrate-biotin 1000 nmol/L, room temperature, one hour
Description: The DDR1 inhibition activity in the compounds of Examples 1 to 80 was evaluated with HTRF® KinEASE-TK kit (Cisbio Bioassays).
Each test substance was dissolved in dimethyl sulfoxide and then used for the evaluation as described below. Moreover, each of test substances and reagents was diluted in the kinase buffer (Cisbio Bioassays) prepared by adding thereto MgCl2, MnCl2, DTT, and the Supplemental Enzyme buffer (Cisbio Bioassays) to concentrations of 5 mmol/L, 0.5 mmol/L, 0.25 mmol/L, and 50 nmol/L, respectively, and then used. Each test substance (in DMSO in a final concentration of 1%), the intracellular domain of DDR1 (in a final concentration of 5 ng/μL) (Carna Biosciences, Inc.), the phosphate donor ATP (in final concentration of 25 μm/L) (Sigma), and the substrate TK Substrate-biotin (in a final concentration of 1000 nmol/L) (Cisbio Bioassays) were added to a 384-well black plate (Corning) and allowed to react at room temperature for one hour. After completion of the reaction, the TK Antibody-Cryptate (Cisbio Bioassays) and the Streptavidin-XL665 (Cisbio Bioassays) were added thereto and allowed to react at room temperature for one hour. In addition, the plate was provided with a well to which a test substance was not added, and with a well to which a test substance and the intracellular domain of DDR1 were […].
The fluorescence intensity in each well was measured using a multi-label counter (Envision, PerkinElmer; excitation wavelength: 320 nm, measurement wavelength: 665 nm and 620 nm) to calculate a ratio (the fluorescence intensity at 665 nm/the fluorescence intensity at 620 nm). The inhibition rate (%) of a test substance at each concentration was calculated based on the formula below: Inhibition rate (%)=([the ratio obtained from the well containing no test substance]−[the ratio from a well containing a test substance])/([the ratio obtained from the well containing no test substance]−[the ratio obtained from the well containing no intracellular domain of DDR1 and no test substance])×100.
The calculated inhibition rates were fitted to a sigmoidal dose-response curve by regression analysis using the Prism 5.04 (GraphPad Software, Inc.) to calculate the IC50 value of the test substance.

T1 sequence (Q08345 439-913 limits assumed): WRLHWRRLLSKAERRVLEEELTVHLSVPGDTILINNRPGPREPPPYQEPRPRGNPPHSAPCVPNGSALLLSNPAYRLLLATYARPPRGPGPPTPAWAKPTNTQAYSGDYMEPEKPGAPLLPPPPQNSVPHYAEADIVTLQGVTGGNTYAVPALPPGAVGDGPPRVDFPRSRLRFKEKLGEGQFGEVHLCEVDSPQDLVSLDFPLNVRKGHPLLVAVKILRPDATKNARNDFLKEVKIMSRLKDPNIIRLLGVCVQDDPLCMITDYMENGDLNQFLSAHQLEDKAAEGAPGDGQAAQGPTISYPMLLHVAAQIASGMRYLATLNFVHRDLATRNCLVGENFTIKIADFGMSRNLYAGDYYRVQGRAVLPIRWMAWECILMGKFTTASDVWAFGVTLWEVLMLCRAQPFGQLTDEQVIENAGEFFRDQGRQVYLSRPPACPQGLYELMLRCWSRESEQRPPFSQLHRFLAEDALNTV

Row | IC50 | Compound
1 | 50.4 nM | 1-(2-(oxetan-3-yloxy)-5-(trifluoromethoxy)phenyl)-3-(trans-4-(pyridin-4-ylmethoxy)cyclohexyl)urea [Example 30]
2 | 476 nM | COc1ccc(OC(F)(F)F)cc1NC(=O)N[C@H]1CC[C@H](Oc2ccnc(N3CCOCC3)n2)CC1 [Example 1, 1-(2-methoxy-5-(trifluoromethoxy)phenyl)-3-(trans-4-((2-morpholinopyrimidin-4-yl)oxy)cyclohexyl)urea]
3 | 229 nM | COc1ccc(OC(F)(F)F)cc1NC(=O)N[C@H]1CC[C@H](Oc2ccncn2)CC1 [Example 2, 1-(2-methoxy-5-(trifluoromethoxy)phenyl)-3-(trans-4-(pyrimidin-4-yloxy)cyclohexyl)urea]
4 | 141 nM | CNc1nccc(O[C@H]2CC[C@H](NC(=O)Nc3cc(OC(F)(F)F)ccc3OC)CC2)n1 [Example 3, 1-(2-methoxy-5-(trifluoromethoxy)phenyl)-3-(trans-4-((2-(methylamino)pyrimidin-4-yl)oxy)cyclohexyl)urea]
5 | 427 nM | COc1ccc(S(F)(F)(F)(F)F)cc1NC(=O)N[C@H]1CC[C@H](Oc2ccnc(N3CCOCC3)n2)CC1 [Example 4, 1-(2-methoxy-5-(pentafluorosulfanyl)phenyl)-3-(trans-4-((2-morpholinopyrimidin-4-yl)oxy)cyclohexyl)urea]
6 | 65.9 nM | COc1c(CO)cc(S(F)(F)(F)(F)F)cc1NC(=O)N[C@H]1CC[C@H](Oc2ccnc(N3CCOCC3)n2)CC1 [Example 5, 1-(3-(hydroxymethyl)-2-methoxy-5-(pentafluorosulfanyl)phenyl)-3-(trans-4-((2-morpholinopyrimidin-4-yl)oxy)cyclohexyl)urea]
7 | 62.2 nM | COc1c(CO)cc(C(F)(F)F)cc1NC(=O)N[C@H]1CC[C@H](Oc2ccnc(N3CCOCC3)n2)CC1 [Example 6, 1-(3-(hydroxymethyl)-2-methoxy-5-(trifluoromethyl)phenyl)-3-(trans-4-((2-morpholinopyrimidin-4-yl)oxy)cyclohexyl)urea]
8 | 111 nM | O=C(Nc1cc(C(F)(F)F)ccc1OC1COC1)N[C@H]1CC[C@H](Oc2ccnc(N3CCOCC3)n2)CC1 [Example 7, 1-(trans-4-((2-morpholinopyrimidin-4-yl)oxy)cyclohexyl)-3-(2-(oxetan-3-yloxy)-5-(trifluoromethyl)phenyl)urea]
9 | 46.3 nM | O=C1CN(c2ccc(C(F)(F)F)cc2NC(=O)N[C@H]2CC[C@H](Oc3ccnc(N4CCOCC4)n3)CC2)CCN1 [Example 8, 1-(trans-4-((2-morpholinopyrimidin-4-yl)oxy)cyclohexyl)-3-(2-(3-oxopiperazin-1-yl)-5-(trifluoromethyl)phenyl)urea]
10 | 349 nM | COc1ccc(OC(F)(F)F)cc1NC(=O)N[C@H]1CC[C@H](Oc2ncccn2)CC1 [Example 9, 1-(2-methoxy-5-(trifluoromethoxy)phenyl)-3-(trans-4-(pyrimidin-2-yloxy)cyclohexyl)urea]
11 | 167 nM | COc1ccc(S(F)(F)(F)(F)F)cc1NC(=O)N[C@H]1CC[C@H](Oc2ncccn2)CC1 [Example 10, 1-(2-methoxy-5-(pentafluorosulfanyl)phenyl)-3-(trans-4-(pyrimidin-2-yloxy)cyclohexyl)urea]
12 | 384 nM | COc1ccc(C(F)(F)F)cc1NC(=O)N[C@H]1CC[C@H](Oc2ncccn2)CC1 [Example 11, 1-(2-methoxy-5-(trifluoromethyl)phenyl)-3-(trans-4-(pyrimidin-2-yloxy)cyclohexyl)urea]
13 | 96.7 nM | COc1c(CO)cc(C(F)(F)F)cc1NC(=O)N[C@H]1CC[C@H](Oc2ncccn2)CC1 [Example 12, 1-(3-(hydroxymethyl)-2-methoxy-5-(trifluoromethyl)phenyl)-3-(trans-4-(pyrimidin-2-yloxy)cyclohexyl)urea]
14 | 57.6 nM | O=C(Nc1cc(C(F)(F)F)ccc1OC1COC1)N[C@H]1CC[C@H](Oc2ncccn2)CC1 [Example 13, 1-(2-(oxetan-3-yloxy)-5-(trifluoromethyl)phenyl)-3-(trans-4-(pyrimidin-2-yloxy)cyclohexyl)urea]
15 | 76.7 nM | O=C(Nc1cc(S(F)(F)(F)(F)F)ccc1OC1COC1)N[C@H]1CC[C@H](Oc2ncccn2)CC1 [Example 14, 1-(2-(oxetan-3-yloxy)-5-(pentafluorosulfanyl)phenyl)-3-(trans-4-(pyrimidin-2-yloxy)cyclohexyl)urea]
16 | 72.4 nM | O=C1CN(c2ccc(C(F)(F)F)cc2NC(=O)N[C@H]2CC[C@H](Oc3ncccn3)CC2)CCN1 [Example 15, 1-(2-(3-oxopiperazin-1-yl)-5-(trifluoromethyl)phenyl)-3-(trans-4-(pyrimidin-2-yloxy)cyclohexyl)urea]

Row | IC50 | Compound
17 | 963 nM | COc1ccc(OC(F)(F)F)cc1NC(=O)N[C@H]1CC[C@H](Oc2ccc(-c3ccccc3)nn2)CC1 [Example 16]
18 | 189 nM | COc1c(CO)cc(C(F)(F)F)cc1NC(=O)N[C@H]1CC[C@H](Oc2ccc(-c3ccccc3)nn2)CC1 [Example 17, 1-(3-(hydroxymethyl)-2-methoxy-5-(trifluoromethyl)phenyl)-3-(4-((6-phenylpyridazin-3-yl)oxy)cyclohexyl)urea]
19 | 162 nM | COc1ccc(OC(F)(F)F)cc1NC(=O)N[C@H]1CC[C@H](Oc2cccnc2)CC1 [Example 18, 1-(2-methoxy-5-(trifluoromethoxy)phenyl)-3-(trans-4-(pyridin-3-yloxy)cyclohexyl)urea]
20 | 46.2 nM | COc1ccc(OC(F)(F)F)cc1NC(=O)N[C@H]1CC[C@H](OCc2ccncc2)CC1 [Example 19, 1-(2-methoxy-5-(trifluoromethoxy)phenyl)-3-(trans-4-(pyridin-4-ylmethoxy)cyclohexyl)urea]
21 | 114 nM | O=C(Nc1cc(CO)cc(C(F)(F)F)c1)N[C@H]1CC[C@H](OCc2ccncc2)CC1 [Example 20, 1-(3-(hydroxymethyl)-5-(trifluoromethyl)phenyl)-3-(trans-4-(pyridin-4-ylmethoxy)cyclohexyl)urea]
22 | 39.3 nM | COc1c(CO)cc(C(F)(F)F)cc1NC(=O)N[C@H]1CC[C@H](OCc2ccncc2)CC1 [Example 21, 1-(3-(hydroxymethyl)-2-methoxy-5-(trifluoromethyl)phenyl)-3-(trans-4-(pyridin-4-ylmethoxy)cyclohexyl)urea]
23 | 234 nM | O=C(Nc1cccc(C(F)(F)F)c1)N[C@H]1CC[C@H](OCc2ccncc2)CC1 [Example 22, 1-(trans-4-(pyridin-4-ylmethoxy)cyclohexyl)-3-(3-(trifluoromethyl)phenyl)urea]
24 | 402 nM | O=C(Nc1ccc(CO)c(C(F)(F)F)c1)N[C@H]1CC[C@H](OCc2ccncc2)CC1 [Example 23, 1-(4-(hydroxymethyl)-3-(trifluoromethyl)phenyl)-3-(trans-4-(pyridin-4-ylmethoxy)cyclohexyl)urea]
25 | 124 nM | COc1ccc(C(F)(F)F)cc1NC(=O)N[C@H]1CC[C@H](OCc2ccncc2)CC1 [Example 24, 1-(2-methoxy-5-(trifluoromethyl)phenyl)-3-(trans-4-(pyridin-4-ylmethoxy)cyclohexyl)urea]
26 | 421 nM | Cc1ccc(C(F)(F)F)cc1NC(=O)N[C@H]1CC[C@H](OCc2ccncc2)CC1 [Example 25, 1-(2-methyl-5-(trifluoromethyl)phenyl)-3-(trans-4-(pyridin-4-ylmethoxy)cyclohexyl)urea]
27 | 82.7 nM | COc1ccc(S(F)(F)(F)(F)F)cc1NC(=O)N[C@H]1CC[C@H](OCc2ccncc2)CC1 [Example 26, 1-(2-methoxy-5-(pentafluorosulfanyl)phenyl)-3-(trans-4-(pyridin-4-ylmethoxy)cyclohexyl)urea]
28 | 258 nM | O=C(Nc1cc(C(F)(F)F)ccc1F)N[C@H]1CC[C@H](OCc2ccncc2)CC1 [Example 27, 1-(2-fluoro-5-(trifluoromethyl)phenyl)-3-(trans-4-(pyridin-4-ylmethoxy)cyclohexyl)urea]
29 | 103 nM | O=C(Nc1cc(C(F)(F)F)ccc1N1CCOCC1)N[C@H]1CC[C@H](OCc2ccncc2)CC1 [Example 28, 1-(2-morpholino-5-(trifluoromethyl)phenyl)-3-(trans-4-(pyridin-4-ylmethoxy)cyclohexyl)urea]
30 | 133 nM | O=C(Nc1cc(C(F)(F)F)ccc1Cl)N[C@H]1CC[C@H](OCc2ccncc2)CC1 [Example 29, 1-(2-chloro-5-(trifluoromethyl)phenyl)-3-(trans-4-(pyridin-4-ylmethoxy)cyclohexyl)urea]
31 | 76.7 nM | O=C(Nc1cc(C(F)(F)F)ccc1OC1CNC1)N[C@H]1CC[C@H](OCc2ccncc2)CC1 [Example 31, 1-(2-(azetidin-3-yloxy)-5-(trifluoromethyl)phenyl)-3-(trans-4-(pyridin-4-ylmethoxy)cyclohexyl)urea]
